Data from patent publication US6753409B1, “STABLE NON-HYGROSCOPIC CRYSTALLINE FORM OF N-[N-[N-(4-(PIPERIDIN-4-YL)BUTANOYL)-N-ETHYLGLYCYL]ASPARTYL]-L-β-CYCLOHEXYL ALANINE AMIDE, INTERMEDIATES THEREOF, AND PREPARATION THEREOF AND OF ANTITHROMBOTIC AZACYCLOALKYLALKANOYL PEPTIDES AND PSEUDOPEPTIDES” (Aventis Pharmaceuticals Inc., priority 1996, dated 2004).
Where two headings read alike, the source gives them in different places. Values belong to the molecule of their own block, whether it stands above or below them.

Tests used:
[1] = Moisture sorption isotherms (VTI MB300G moisture balance); type: physicochemical; conditions: 25° C.; for desorption to original weight %: decreasing RH
Method: Moisture Sorption Isotherms of hygroscopic and non-hygroscopic crystalline forms of N-[N-[N-(4-piperdin-4-yl)butanoyl)-N-ethylglycyl]-(L)-aspartyl]-(L)-β-cyclohexylalanine amide are obtained on a VTI MB300G moisture balance. The experiments are conducted either by subjecting approximately 15 mg of the subject crystalline form to increasing and decreasing steps of % RH and following the weight gain (at each equilibrium step) as a function of % RH (FIG. 9) or by holding the subject crystalline form at constant humidity and following the weight gain as a function of time.

[2] = Isothermal microcalorimetry of solid state form conversion (Thermal Activity Monitor); type: physicochemical; conditions: for thermal activity (form conversion) on exposure to humidity: 80% RH (saturated KCl solution), over 30 hours; for time for conversion of hygroscopic to non-hygroscopic form: 80% RH
Method: Isothermal microcalorimetry experiments on hygroscopic and non-hygroscopic crystalline forms of N-[N-[N-(4-piperdin-4-yl)butanoyl)-N-ethylglycyl]-(L)-aspartyl]-(L)-β-cyclohexylalanine amide are performed on a Thermometric® Thermal Activity Monitor (TAM). Solid state conversions of the different chrystalline forms are studied by exposing the forms to different humidities or solvent vapors at different temperatures. The saturated salt solutions used to obtain different humidities were: KCl (80% RH), NaCl (75% RH), and NaBr (65% RH). Approximately 100 mg quantities of the forms are weighed into a TAM glass ampule and a microhygrostate containing a saturated salt solution (with excess solid) or an organic solvent is placed inside the ampule. The ampule is sealed, equilibrated to the temperature of the experiment, and lowered into the measuring position in the TAM. An identical system containing washed sea sand, in place of the form subject to testing, is placed on the reference side. Output power (μW) is measured as a function of time (FIGS. 6-8).

[3] = tested on: fixed activated platelets; test: Platelet Aggregation Assay (fixed-activated platelets, aggregation initiated by human fibrinogen); type: cell-based; conditions: human fibrinogen 250 μg/mL, read-out: Inhibition of Fixed Platelet Aggregation (IC50 μM)
Excerpt: (§1) The Platelet Aggregation Assay is based on that described in Blood 66 (4), 946-952 (1985). The Fibrinogen-Binding Assay is essentially that of Ruggeri, Z. M., et al., Proc. Nail. Acad. Sci. USA 83, 5708-5712 (1986) and Plow, E. F., et al., Proc. Natl. Acad Sci., USA 82, 8057-8061 (1985). The Inhibition of ADP-lndticed ex-vivo Platelet Aggregation assay is based on that of Zucker, “Platelet Aggregation Measured by the Photoelectric Method”, Methods in Enzymology 169, 117-133 (1989).
Platelets are isolated from human platelet concentrates using the gel-filtration technique as described by Marguerie, G. A. et al., J. Biol. Chem. 254, 5357-5363 (1979) and Ruggeri, Z. M. et al., J. Clin. Invest. 72, 1-12 (1983). The platelets are suspended at a concentration of 2×10^8 cells/mL in a modified calcium-free Tyrode's buffer containing 127 mM sodium chloride, 2 mM magnesium chloride, 0.42 mM Na2HPO4, 11.9 mM NaHCO3, 2.9 mM KCl, 5.5 mM glucose, 10 mM HEPES, at a pH of 7.35 and 0.35% human serum albumin (HSA). […]
The fixed activated platelets are incubated with a selected dose of the compound to be tested for platelet aggregation inhibition for one minute andfaggregation initiated by addition of human fibrinogen to a final concentration of 250 μg/mL. […] The extent of inhibition of aggregation is expressed as the percentage of the rate of aggregation observed in the absence of inhibitor. […]

[4] = tested on: ADP-induced platelet aggregation in platelet rich plasma; test: Inhibition of ADP-Induced ex-vivo Platelet Aggregation after oral administration; type: in vivo, mongrel dogs; conditions: dog, 5 mg/kg; for % Inhibition of ex-vivo Platelet Aggregation After Oral Administration, 1 h: 1 h after dosing; for % Inhibition of ex-vivo Platelet Aggregation After Oral Administration, 3 h: 3 h after dosing
Excerpt: as §1
Control blood samples are obtained 5-10 minutes prior to administration of a test compound in mongrel dogs weighing from 10 to 20 Kg. The compound is administered intragasticly, via aqueous gavage, or orally, via gelatin capsule. Blood samples (5 ml) are then obtained at 30 minute intervals for 3 hours, and at 6, 12, and 24 hours after dosing. Each blood sample is obtained by venipuncture of the cephalic vein and is collected directly into a plastic syringe containing one part 3.8% trisodium citrate to nine parts blood.
The blood samples are centrifuged at 1000 rpm for 10 minutes to obtain platelet rich plasma (PRP). After removal of the PRP, the sample is centrifuged for an additional 10 minutes at 2000 rpm to obtain platelet poor plasma (PPP). Platelet count in the PRP is determined by using a Coulter Counter (Coulter Electronics, Hialeah, Fla.). If the concentration of platelets in the PRP is greater than 300,000 platelets/μL, then the PRP is diluted with PPP to adjust the platelet count to 300,000 platelets/μL. Aliquots of PRP (250 μL) are then placed in siliconized glass cuvettes (7.25×55 mm, Bio/Data Corp., Horsham, Pa.). Epinephrine (final concentration of 1 μM) is then added to the PRP, which is incubated for one minute at 37° C. A stimulator of platelet aggregation ADP at a final concentration of 10 μM, is then added to the PRP. Platelet aggregation is monitored spectrophotometrically utilizing a light transmission aggregometer (Bio/Data Platelet Aggregation Profiler, Model PAP-4, Bio/Data Corp., Horsham, Pa.). For the testing of a compound, the rate of change (slope) of light transmittance and the maximum light transmittance (maximum aggregation) is recorded in duplicate. Platelet aggregation data are reported as the percent decrease (mean±SEM) in slope or maximum aggregation as compared to data obtained from control PRP, which is prepared from blood samples obtained prior to administration of the test compound.

[5] = Hygroscopicity and physical stability of the material prepared according to WO95/10295 (statement); type: physicochemical

desorption to original weight % [1]: does desorb to its original weight %
Structure (SMILES): CCN(CC(=O)N[C@@H](CC(=O)O)C(=O)N[C@@H](CC1CCCCC1)C(N)=O)C(=O)CCCC1CCNCC1 [non-hygroscopic form]
thermal activity (form conversion) on exposure to humidity ([2]; 40° C.): no exothermic conversion event takes place

desorption to original weight % ([1]; listed as hygroscopic form): does not desorb to its original weight % | thermal activity (form conversion) on exposure to humidity ([2]; 40° C., listed as hygroscopic form): strong exothermic event takes place | time for conversion of hygroscopic to non-hygroscopic form ([2]; 40° C.): approximately 24 hours | time for conversion of hygroscopic to non-hygroscopic form ([2]; 50° C.): ~6.5 h | time for conversion of hygroscopic to non-hygroscopic form ([2]; 60° C.): ~3 h | liquification during conversion ([2]; 100% RH, 60° C.): without the liquification
Structure (SMILES): CCN(CC(=O)N[C@@H](CC(=O)O)C(=O)N[C@@H](CC1CCCCC1)C(N)=O)C(=O)CCCC1CCNCC1 [hygroscopic crystalline form]
% weight gain vs. % RH (water uptake) ([1]; increasing RH, more pronounced above 60% RH): picks up more water than the non-hygroscopic form as the RH increases | effect of relative humidity on rate of conversion to non-hygroscopic form ([2]; 60° C., 65% RH, 75% RH, 80% RH and 100% RH): higher relative humidities produce a faster conversion | thermal activity (form conversion) on exposure to methanol vapors ([2]; methanol vapors, 40° C.): no exothermic conversion event takes place

Second part, the molecule before the results:

Structure (SMILES): CCN(CC(=O)N[C@@H](CC(=O)O)C(=O)N[C@@H](CC1CCCCC1)C(N)=O)C(=O)CCCC1CCNCC1 [Example 15]
IC50 ([3]; Platelet): 0.097 µM | % Inhibition of ex-vivo Platelet Aggregation After Oral Administration, 1 h [4]: 100% | % Inhibition of ex-vivo Platelet Aggregation After Oral Administration, 3 h [4]: 100% | % Inhibition of ex-vivo Platelet Aggregation After Oral Administration, 6 h ([4]; 6 h after dosing): 100% | % Inhibition of ex-vivo Platelet Aggregation After Oral Administration, 12 h ([4]; 12 h after dosing): 98% | % Inhibition of ex-vivo Platelet Aggregation After Oral Administration, 24 h ([4]; 24 h after dosing): 50%

Structure (SMILES): CCN(CC(=O)N[C@@H](CC(=O)O)C(=O)N[C@@H](CC1CCCCC1)C(N)=O)C(=O)CCCC1CCNCC1 [N-[N-[N-(4-(piperdin-4-yl)butanoyl)-N-ethylglycyl]-(L)-aspartyl]-(L)-β-cyclohexylalanine amide]
hygroscopicity and physical stability [5]: hygroscopic and is physically unstable as it absorbs moisture

Structure (SMILES): O=C(O)C[C@H](NC(=O)CNC(=O)CCCC1CCNCC1)C(=O)N[C@@H](Cc1c[nH]c2ccccc12)C(=O)O [Compound of EPA ‘481, 4-4(piperidyl)butanoyl glycyl aspartyl tryptophan, reference compound]
IC50 [3]: 0.047 µM | % Inhibition of ex-vivo Platelet Aggregation After Oral Administration, 1 h [4]: 53% | % Inhibition of ex-vivo Platelet Aggregation After Oral Administration, 3 h [4]: <20%
